In US20260315609A1, “MIXED VASOPRESSIN RECEPTOR AGONIST-ANTAGONIST FOR TREATING END-STAGE LIVER DISEASE AND COMPLICATIONS ASSOCIATED THEREOF” (FERRING B.V., priority 2022, published 2026):
Starred links: 1 amine or outer side, 2 acyl side, 3 side chain; linkers in the order of their positions; H or OH if unused. Positions of bridges follow the written chain, without caps; N, C: chain ends. Non-standard residues stand in square brackets, D forms with d. Residues, ends and D or L forms follow the SMILES beside them. Chains are numbered I, II in the order given. *: point of attachment. isoGln = NC(=O)[C@H](CCC(=O)[*:2])N[*:1]; εLys = N[C@@H](CCCCN[*:1])C(=O)[*:2]; Dab = NCC[C@H](N)C(=O)O; PhAc = O=C(Cc1ccccc1)*

Columns and labels:
[1] = system: methionine/choline-deficient (MCD) diet rats; assay: MAP / ΔMAP in methionine/choline-deficient (MCD) diet rats; type: in vivo, rat; details: for Δ MAP (mean): SC, MCD diet rats
Procedure: The terlipressin dose was 100 μg/kg.
Data were evaluated as change […] from baseline.

hV1b receptor = biological target: T1, hV1b receptor (Homo sapiens, UniProt P47901); assay: Luciferase reporter gene assay, human V1b; details: read-out: % MPE
T1 sequence (P47901 1-424): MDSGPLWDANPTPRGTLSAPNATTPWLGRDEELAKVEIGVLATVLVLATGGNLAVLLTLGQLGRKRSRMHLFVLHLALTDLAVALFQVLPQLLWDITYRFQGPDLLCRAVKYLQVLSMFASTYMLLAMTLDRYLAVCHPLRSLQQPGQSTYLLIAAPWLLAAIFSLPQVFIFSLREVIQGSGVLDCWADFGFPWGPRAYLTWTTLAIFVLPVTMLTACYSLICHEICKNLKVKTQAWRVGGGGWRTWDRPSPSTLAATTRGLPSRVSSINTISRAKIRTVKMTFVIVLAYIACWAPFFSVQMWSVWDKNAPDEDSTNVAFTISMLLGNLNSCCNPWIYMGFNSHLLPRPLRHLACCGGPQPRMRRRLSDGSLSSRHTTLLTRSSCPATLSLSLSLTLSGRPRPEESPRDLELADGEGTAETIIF
Procedure: Cell Lines. Studies were conducted with cell lines expressing rat (r) or human (h) Via, V1b, V2, or OT receptors. For the experiments with human receptors, human embryonic kidney (HEK)-flp-in cells stably expressing the lacZ-Zeocin™ fusion gene were used for expression of hV1a and hV1b. These cells were designed for use with the Flp-In™ expression vector containing the gene of interest (here hV1a or hV1b) and the Flp recombinase expression plasmid, pOG44. For hV2 and hOTR, HEK-293 cells transiently expressing hV2 were used.
Cell Maintenance. […]
Functional Cell-Based Assays. To detect activity generated by binding of the test compounds to endogenous rV1a receptors or the stably expressed hV1a receptors, Fluorometric Imaging Plate Reader (FL1PR) calcium assays were performed. Briefly, real-time fluorescence of an intracellular calcium-sensitive dye was measured immediately upon addition of the test compound at various concentrations. […] Expression of the luciferase gene was determined after 5-h incubation with various concentrations of test compound. […] For V1a receptor response, area under the curve of the real-time calcium traces, expressed as relative fluorescence units, was determined. […]

[2] = system: CCl4-induced rat model of cirrhosis and ascites; assay: CCl4-induced cirrhosis and ascites rats, cohort 3 (single IV bolus), hemodynamics and serum aldosterone; type: in vivo; details: 100 μg/kg IV
Procedure: Animals: 90 male Wistar rats (Charles River Laboratories, Espana S.A) weighing 200-220 grams at the time of receipt were subjected to a cirrhosis induction program; high dose CCl4 was administered by inhalation twice weekly (Monday and Friday) and phenobarbital (0.3 g/L) was added to drinking water. In some instances, liver damage in this model is caused by hepatotoxic CCl4 metabolites produced in the liver. In some instances, phenobarbital induction of the microsomal enzyme oxidizing system exaggerates the intensity of the hepatic necrosis. […] Animals were allowed free access to food and water throughout the study.
The study consisted of 3 treatment cohorts, as detailed in Table 10. Animals developing and maintaining ascites for 2 weeks were randomly assigned to treatment groups. Ringer Braun saline solution was used as vehicle. IV bolus were administered via femoral veins.
Cohort 3: Animals were anesthetized and the left femoral artery and vein catheterized. The femoral artery catheter was connected to a transducer for mean arterial pressure (MAP) measurements. The right jugular vein was isolated and a catheter placed in the right atrium; a thermocouple was advanced through the aortic arch via left carotid approach to monitor the intraarterial temperature and cardiac output (CO). MAP and CO were measured and recorded in a multichannel system (Powerlab). CO was measured by thermodilution following the administration of a 200 μL/animal bolus of Ringer solution (20-23° C.) into the right atrium using a spring-loaded Hamilton syringe. A midline abdominal incision (2 cm) was created and the portal vein cannulated through the ileocolic vein to measure portal pressure (PP). Constant infusion (2 mL/hr) of Ringer solution was given through the femoral vein. After 30 minutes of infusion, baseline 30 minute values for PP, MAP, CO, and systemic vascular resistance (SVR) were recorded. In the middle of the 30 minute data collection, a blood sample (0.8 mL) was obtained via the femoral artery catheter for serum aldosterone measurements. […] Five 30 minute data collections were recorded for PP, MAP, CO, and SVR over 150 minutes, with blood samples collected in the middle of each 30 minute data collection. Following blood sampling, packed cells were reconstituted with Ringer solution and reinjected over a period of 3 minutes.

`CC[C@H](C)[C@@H]1NC(=O)[C@H](Cc2ccccc2)NC(=O)[C@@H](N)CSSC[C@@H](C(=O)N2CCC[C@H]2C(=O)N[C@@H](CCNC(=O)[C@@H](N)CCCCNC(=O)[C@H](CCCCNC(C)=O)NC(=O)CC[C@H](NC(=O)[C@H](CCCNC(=N)N)NC(=O)[C@@H]2CCCN2C(=O)[C@H](C)NC(=O)[C@H](CC(N)=O)NC(=O)[C@H](CCC(N)=O)NC(=O)[C@H](Cc2ccccc2)NC(=O)[C@@H](Cc2ccc(OC)cc2)NC(=O)Cc2ccccc2)C(N)=O)C(=O)NCC(N)=O)NC(=O)[C@H](CC(N)=O)NC(=O)[C@H](CCC(N)=O)NC1=O` [Compound 1, Glycinamide, L-cysteinyl-L-phenylalanyl-L-isoleucyl-L-glutaminyl-L-asparaginyl-L-cysteinyl-L-prolyl-N4-(phenylacetyl-O-methyl-D-tyrosyl-L-phenylalanyl-L-glutaminyl-L-asparaginyl-L-alanyl-L-prolyl-L-arginyl-L-isoglutamyl-N5-acetyl-L-lysyl-L-ε-lysyl)-L-2,4-diaminobutyryl-, cyclic (1→6)-disulfide] (I: H-CFIQNCP[Dab]G-NH2 / II: PhAc-[dY](Me)FQNAPR[isoGln]K(Ac)[εLys]; disulfide I:1-I:6; amide I:8-II:C) was tested, and the “Δ MAP (mean)” value ([1]; 25 μg/kg, 0 min) was 0.0 mmHg, the “Δ MAP (mean)” value ([1]; 25 μg/kg, 1 min) was 1.1 mmHg and the “Δ MAP (mean)” value ([1]; 25 μg/kg, 2 min) was 1.9 mmHg. For the same molecule, the “Δ MAP (mean)” value ([1]; 25 μg/kg, 3 min) was 2.6 mmHg, the “Δ MAP (mean)” value ([1]; 25 μg/kg, 5 min) was 3.5 mmHg and the “Δ MAP (mean)” value ([1]; 25 μg/kg, 7 min) was 4.0 mmHg. The “Δ MAP (mean)” value ([1]; 25 μg/kg, 10 min) was 4.8 mmHg, the “Δ MAP (mean)” value ([1]; 25 μg/kg, 15 min) was 5.3 mmHg and the “Δ MAP (mean)” value ([1]; 25 μg/kg, 20 min) was 5.2 mmHg. For the same molecule, the “Δ MAP (mean)” value ([1]; 25 μg/kg, 30 min) was 4.4 mmHg, the “Δ MAP (mean)” value ([1]; 25 μg/kg, 60 min) was 3.0 mmHg and the “Δ MAP (mean)” value ([1]; 25 μg/kg, 90 min) was 3.1 mmHg. The “Δ MAP (mean)” value ([1]; 100 μg/kg, 0 min) was 0.0 mmHg, the “Δ MAP (mean)” value ([1]; 100 μg/kg, 1 min) was 2.0 mmHg and the “Δ MAP (mean)” value ([1]; 100 μg/kg, 2 min) was 3.5 mmHg. For the same molecule, the “Δ MAP (mean)” value ([1]; 100 μg/kg, 3 min) was 4.4 mmHg, the “Δ MAP (mean)” value ([1]; 100 μg/kg, 5 min) was 7.0 mmHg and the “Δ MAP (mean)” value ([1]; 100 μg/kg, 7 min) was 8.5 mmHg. For the same molecule, the “Δ MAP (mean)” value ([1]; 100 μg/kg, 10 min) was 9.9 mmHg, the “Δ MAP (mean)” value ([1]; 100 μg/kg, 15 min) was 11.0 mmHg and the “Δ MAP (mean)” value ([1]; 100 μg/kg, 20 min) was 11.3 mmHg. The “Δ MAP (mean)” value ([1]; 100 μg/kg, 30 min) was 10.6 mmHg, the “Δ MAP (mean)” value ([1]; 100 μg/kg, 60 min) was 10.9 mmHg and the “Δ MAP (mean)” value ([1]; 100 μg/kg, 90 min) was 9.2 mmHg. For the same molecule, the “Δ MAP (mean)” value ([1]; 500 μg/kg, 0 min) was 0.0 mmHg, the “Δ MAP (mean)” value ([1]; 500 μg/kg, 1 min) was 2.2 mmHg and the “Δ MAP (mean)” value ([1]; 500 μg/kg, 2 min) was 4.5 mmHg. For the same molecule, the “Δ MAP (mean)” value ([1]; 500 μg/kg, 3 min) was 6.4 mmHg, the “Δ MAP (mean)” value ([1]; 500 μg/kg, 5 min) was 9.1 mmHg and the “Δ MAP (mean)” value ([1]; 500 μg/kg, 7 min) was 12.1 mmHg. The “Δ MAP (mean)” value ([1]; 500 μg/kg, 10 min) was 14.7 mmHg, the “Δ MAP (mean)” value ([1]; 500 μg/kg, 15 min) was 13.6 mmHg and the “Δ MAP (mean)” value ([1]; 500 μg/kg, 20 min) was 13.7 mmHg. The “Δ MAP (mean)” value ([1]; 500 μg/kg, 30 min) was 11.4 mmHg, the “Δ MAP (mean)” value ([1]; 500 μg/kg, 60 min) was 9.1 mmHg and the “Δ MAP (mean)” value ([1]; 500 μg/kg, 90 min) was 10.2 mmHg. The “highest observed absolute MAP” value ([1]; SC 25 μg/kg) was 79.2±1.4 mmHg, the “highest observed absolute MAP” value ([1]; SC 100 μg/kg) was 86.8±2.5 mmHg and the “highest observed absolute MAP” value ([1]; SC 500 μg/kg) was 90.4±3.7 mmHg. For the same molecule, the “maximum ΔMAP” value ([1]; SC 25 g/kg (so in the source)) was 5.3±1.1 mmHg, the Emax (hV1b receptor) was 72% and the “Cardiac output - portal pressure” value ([2]; 0 min) was 173 mL/min. The “Mean Arterial Pressure” value ([2]; 0 min) was 79 mmHg, the “Systemic Vascular Resistance” value ([2]; 0 min) was 0.49 mmHg * min/mL and the “Cardiac output - portal pressure” value ([2]; 30 min) was 178 mL/min. For the same molecule, the “Mean Arterial Pressure” value ([2]; 30 min) was 84 mmHg, the “Portal Pressure” value ([2]; 30 min) was 13.9 mmHg and the “Systemic Vascular Resistance” value ([2]; 30 min) was 0.54 mmHg * min/mL. The “Cardiac output - portal pressure” value ([2]; 60 min) was 177 mL/min, the “Mean Arterial Pressure” value ([2]; 60 min) was 91 mmHg and the “Portal Pressure” value ([2]; 60 min) was 12.8 mmHg. The “Systemic Vascular Resistance” value ([2]; 60 min) was 0.54 mmHg * min/mL, the “Cardiac output - portal pressure” value ([2]; 90 min) was 158 mL/min and the “Mean Arterial Pressure” value ([2]; 90 min) was 98 mmHg. For the same molecule, the “Portal Pressure” value ([2]; 90 min) was 11.5 mmHg, the “Systemic Vascular Resistance” value ([2]; 90 min) was 0.71 mmHg * min/mL and the “Cardiac output - portal pressure” value ([2]; 120 min) was 140 mL/min. The “Mean Arterial Pressure” value ([2]; 120 min) was 93 mmHg, the “Portal Pressure” value ([2]; 120 min) was 10.6 mmHg and the “Systemic Vascular Resistance” value ([2]; 120 min) was 0.72 mmHg * min/mL. The “Cardiac output - portal pressure” value ([2]; 150 min) was 139 mL/min, the “Mean Arterial Pressure” value ([2]; 150 min) was 92 mmHg and the “Portal Pressure” value ([2]; 150 min) was 9.7 mmHg. The “Systemic Vascular Resistance” value ([2]; 150 min) was 0.74 mmHg * min/mL, the “reduction in serum aldosterone” value ([2]; end of study) was “greater than 50%” and the “Serum Aldosterone” value ([2]; end of study (vehicle 786)) was 264 ng/dL.
